Source: ChEMBL document CHEMBL2439965, “Dialkylimidazole inhibitors of Trypanosoma cruzi sterol 14α-demethylase as anti-Chagas disease agents” (Bioorg Med Chem Lett, 2013)
pEC50, pIC50, pKd: −log10 of the molar value.

Legend:
[1] = Cytotoxicity against human CRL8155 cells; format: cell-based
[2] = Inhibition of recombinant Trypanosoma cruzi sterol 14-alpha-demethylase by spectrophotometry
physchem = details: octanol/water
Description: Lipophilicity, log P of the compound

Trypanosoma cruzi = assay: microbe, parasite or virus in culture; details: Tulahuen, NIH3T3, 168 h
Description: Antitrypanosomal activity against Trypanosoma cruzi Tulahuen infected in 3T3 cells after 7 days by beta-galactosidase assay

With COc1ccc(NCc2cncn2Cc2ccc(-c3ccccc3)cc2N)nc1-c1ccccc1 as the compound, how does the pIC50 [1] read?
Its pIC50 is less than 5.30.

And the pKd [2]?
The pKd was 6.31.

And the logP (physchem)?
The logP was 5.

What about the pEC50 (Trypanosoma cruzi) of the same compound?
The pEC50 was 9.70.
